Patent US20240374535A1, “COMPOSITIONS AND METHODS FOR TREATING BIOFILM DISORDERS AND INFECTIONS” (AHV International B.V., priority 2021, published 2024)

Experiments:
[1] = test system: Pseudomonas aeruginosa ATCC 27853; assay: MIC assay (planktonic growth inhibition, OD600); type: cell-based, P. aeruginosa; conditions: 24 h at 37° C.
In short: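 Broth microdilution in MHB-II, two-fold series from 8 mM stock solution (Tween 80/DMSO co-diluted, 2.5% in top well). Inoculum from overnight TSA colonies adjusted to OD600 0.0008 (~10^6 CFU/mL); 24 h at 37° C., growth read as OD600; three independent experiments.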

[2] = test system: Staphylococcus epidermis ATCC 35984 biofilm; assay: MBEC assay (biofilm eradication, CFU log reduction); type: cell-based, S. epidermidis; conditions: 48 h grown biofilm, 20 h treatment, CFU log reduction vs untreated
In short: (§1)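 Biofilms were grown 48 h static at 37 °C in TSB from inocula at OD600 0.2, then treated 20 h at 37 °C with 1, 0.5, 0.25 or 0.125 mM compound in saline (Tween 80 and DMSO each 0.63–0.08%), four replicates per condition. Resuspended biofilm was serially diluted and plated on TSA for 24 h; log CFU reduction versus untreated, with ≥1 counted as significant, in two independent experiments.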

[3] = test system: Pseudomonas aeruginosa ATCC 27853 biofilm; assay: as above; type: cell-based, P. aeruginosa; conditions: 48 h grown biofilm, 20 h treatment, CFU log reduction vs untreated
In short: as §1

| SMILES | IC50 ([1]; Pseudomonas aeruginosa, ATCC27853, minimal concentration reducing final OD600 by 50%, read-out: P. aeruginosa MIC50) [µM] | IC90 ([1]; Pseudomonas aeruginosa, ATCC27853, minimal concentration reducing final OD600 by 90%, read-out: P. aeruginosa MIC90) [µM] | minimal effective concentration ([2]; read-out: S. epidermidis MBEC mM with log reduction ≥1) [mM] | minimal effective concentration ([3]; Pseudomonas aeruginosa, ATCC27853, read-out: P. aeruginosa MBEC mM with log reduction ≥1) [mM] | P. aeruginosa MIC50 ([1]; minimal concentration reducing final OD600 by 50%) [µM] | P. aeruginosa MIC90 ([1]; minimal concentration reducing final OD600 by 90%) [µM] | S. epidermidis MBEC mM with log reduction ≥1 [2] [mM] | P. aeruginosa MBEC mM with log reduction ≥1 [3] [mM] |
| --- | --- | --- | --- | --- | --- | --- | --- | --- |
| CCCS[S+]([O-])CCC (centres unmarked) [Di-n-propyl thiosulfinate, S-propyl propane-1-sulfinothioate] | 1000 | 2000 | 2 | 4 | – | – | – | – |
| CSS(C)(=O)=O [Di-methyl thiosulfonate, methyl methane thiosulfonate] | – | – | – | – | 250 | 500 | 2 | 2 |
